# Laboratory results taken from US20090075309A1, “Bisdeoxycoelenterazine derivatives, methods of use, and BRET2 systems” (priority 2007, published 2009).
# Like-named read-outs stand apart in the source and are kept apart here.
# Target: HT1080 cells stably expressing the GFP2-RLuc8 fusion protein (Renilla reniformis, UniProt P27652, A143M/A55T/C124A/K136R/M185V/M253L/S130A/S287L)
# Details: for signal half-life (time required for the initial light flux to fall to its half-value): HT1080 GFP2-RLuc8 cells, 60 μM derivatives; for intensity of the light signal among the four derivatives: FIG. 3A
# Experimental: The kinetics of the bioluminescent reactions was evaluated by exposing the derivatives to HT1080 cells stably expressing the GFP2-RLuc8 fusion protein and detecting generated light over the course of one hour using cooled charge coupled device camera (FIG. 2).
# Human fibrosracoma cell line HT1080 stably expressing GFP2-RLuc8 fusion protein was grown in Dulbecco's modified Eagle high glucose medium (DMEM, Invitrogen, Carlsbad, Calif.) supplemented with 10% fetal bovine serum (FBS), 1% penicillin-streptomycin and 500 μg/mL Zeocin™ (Invitrogen). One day before the luminescence study, 10 000 cells were plated in the 96 well plates (Corning Incorporated, Lowell, Mass.). After the removal of the medium 100 μL of the 5 μM solution of BDC in PBS and 60 μM solution of BDC derivatives in DMSO were added and luminescence measured every five minutes during one hour using an open filter setting. The acquisition time was 10 sec. Images were acquired using a cooled charged-coupled device (CCD) camera IVIS 50 (Caliper Life Sciences, Hopkinton, Mass.) and analyzed using Living Image® software version 2.50.1 (Caliper Life Sciences, Hopkinton, Mass.). Region of interest were drawn, and maximum radiance used as the measure of luminescence. The measurements were done in triplicates.
# HT1080 cells stably expressing the GFP2-RLuc8 fusion protein, sequence (P27652 whole entry A55T/C124A/S130A/K136R/A143M/M185V/M253L/S287L, the tested form may be a part): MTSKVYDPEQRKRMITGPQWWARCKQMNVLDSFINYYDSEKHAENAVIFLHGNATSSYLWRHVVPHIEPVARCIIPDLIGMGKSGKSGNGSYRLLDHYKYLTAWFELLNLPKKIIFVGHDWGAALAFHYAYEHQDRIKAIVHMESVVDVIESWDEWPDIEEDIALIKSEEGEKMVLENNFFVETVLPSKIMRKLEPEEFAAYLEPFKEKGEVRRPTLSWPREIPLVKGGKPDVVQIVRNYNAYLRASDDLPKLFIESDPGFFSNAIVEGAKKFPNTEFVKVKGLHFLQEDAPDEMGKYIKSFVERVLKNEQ
molecule,measurement,setting,value
"O=c1c(Cc2ccccc2)nc2c(Cc3ccccc3)[nH]c(-c3ccccc3)cn1-2 [BDC, bisdeoxycoelenterazine]",signal half-life (time required for the initial light flux to fall to its half-value),5 μM BDC,5 min
same,loss of initial light emission,at the 15 minute time point,~75%
acetyl-bisdeoxycoelenterazine [compound 7],intensity of the light signal among the four derivatives,,highest light signal
same,rate of the bioluminescent reaction / light signal decay (in words),over one hour,"fast light signal decay, similar to BDC"
"CC(C)(C)OC(=O)Oc1c(Cc2ccccc2)nc2c(Cc3ccccc3)nc(-c3ccccc3)cn12 [compound 8, O-Boc-bisdeoxycoelenterazine]",time of peak light emission after exposure to the RLUC8 expressing cells,,15 min
same,signal half-life (time required for the initial light flux to fall to its half-value),5 μM BDC,~50 min
same,rate of the bioluminescent reaction / light signal decay (in words),over one hour,remained fairly stable over one hour
pivaloyloxymethyl-bisdeoxycoelenterazine [compound 10],observable signal 24 hours after exposure to the enzyme,"24 hours, FIG. 3B",the only observable signal 24 hours after exposure to the enzyme came from it
same,intensity of the light signal among the four derivatives,,lowest
same,signal half-life (time required for the initial light flux to fall to its half-value),,over one
same,light signal as share of the maximum intensity (lowest value reached),over one hour,≥ 88%
same,rate of the bioluminescent reaction / light signal decay (in words),over one hour,slower bioluminescent reactions compared to their ester counterparts
same,rate of the bioluminescent reaction / light signal decay (in words),"over one hour, listed as pivaloyloxymethyl-BDC",slowest bioluminescent reaction
acetoxymethyl-bisdeoxycoelenterazine [compound 9],delay of the emergence of the maximum light signal compared to the parent BDC,,5 min
same,signal half-life (time required for the initial light flux to fall to its half-value),,over one
same,rate of the bioluminescent reaction / light signal decay (in words),over one hour,slower bioluminescent reactions compared to their ester counterparts
same,rate of the bioluminescent reaction / light signal decay (in words),"over one hour, listed as acetoxymethyl-BDC",slowly decayed with time
